Measured values as given in patent publication EP4817594A1, “SKIN CONDITION IMPROVEMENT COMPOSITION COMPRISING GLUTATHIONE-CONTAINING EXOSOME-LIKE VESICLES” (Cosmax, Inc., priority 2023, dated 2025).
Where two headings read alike, the source gives them in different places.

Procedure: At this time, reduced glutathione was used as a standard.
Each of the diluted standard, the sample of Comparative Example 1 diluted in tertiary distilled water, the sample of Example diluted in tertiary distilled water, and the sample of Comparative Example 2 diluted in tertiary distilled water was filtered through a 0.2 µm-syringe filter, and the filtrate was put into a vial for HPLC. 10 ul was injected into a C18 column, and the samples were eluted at a flow rate of 1 ml/min, and the values were measured by using a DAD detector.

SMILES: N[C@@H](CCC(=O)N[C@@H](CS)C(=O)NCC(=O)O)C(=O)O [Comparative Example 1, Glutathione]
- Relative concentration of reduced glutathione (GSH) (Immediately after loading, 25 °C, light blocked): 1.00
- Relative concentration of reduced glutathione (GSH) (water, 4380 h): 0.21
- glutathione concentration compared to the initial concentration (water, 4380 h): about 20%
- Relative concentration of reduced glutathione (GSH) (water, 8766 h): 0.06
- glutathione concentration compared to the initial concentration (water, 8766 h): about 6%
